Tested on: individuals who have previously had an MI
Assay: CARE trial: effect of pravastatin vs placebo on coronary events (endpt1, rmi) by SNP genotype subgroup
Assay type: in vivo, human
Protocol: In Tables 21-22, the column labeled “Endpoint” indicates whether the endpoint that was analyzed was the primary endpoint of the CARE study (a composite endpoint of fatal coronary event or nonfatal MI, and identified as “endpt1”) or a composite endpoint of confirmed fatal or nonfatal MI (identified as “rmi”). […] As used herein, the term “benefit” (with respect to a preventive or therapeutic drug treatment) is defined as achieving a reduced risk for a disease that the drug is intended to treat or prevent (e.g., CVD such as CHD, particularly MI, or hypertension) by administering the drug treatment, compared with the risk for the disease in the absence of receiving the drug treatment (or receiving a placebo in lieu of the drug treatment) for the same genotype. […] J. […] (1996) New England Journal of Medicine 335: 1001-1009. […] A well-documented MI was one of the enrollment criteria for entry into the CARE study. Patients were enrolled in the CARE trial from 80 participating study centers. […] For the study of CARE described in this Example and shown in Tables 21-22, two endpoints were investigated: the primary endpoint of CARE (a composite endpoint of fatal coronary event or nonfatal MI, and identified as “endpt1” in the Endpoint column of Tables 21-22) and a composite endpoint of confirmed fatal or nonfatal MI (identified as “rmi” in the Endpoint column of Tables 21-22). […] HR stands for Hazard Ratio, which is a concept similar to Odds Ratio (OR). The HR in event-free survival analysis is the effect of an explanatory variable on the hazard or risk of an event. […] In Table 21, p-interaction values were calculated. An interaction (or effect modification) is formed when a third variable modifies the relation between an exposure and outcome. […] Genotype and drug interaction is present when the effect of statins (incidence rate of disease in statin-treated group, as compared to placebo) differs in patients with different genotypes.

[1] = endpt1, hCV8851065 rs9277343 HLA-DPA1, GC + CC
[2] = endpt1, hCV8851065 rs9277343 HLA-DPA1, GG
[3] = endpt1, hCV8851085 rs1042153 HLA-DPB1, AG + AA
[4] = endpt1, hCV8851085 rs1042153 HLA-DPB1, GG
[5] = endpt1, hCV8851095 rs1042335 HLA-DPB1, TC + CC
[6] = endpt1, hCV8851095 rs1042335 HLA-DPB1, TT
[7] = endpt1, hCV8895373 rs1503185 PTPRJ, AG + AA
[8] = endpt1, hCV8895373 rs1503185 PTPRJ, GG
[9] = endpt1, hCV8901525 rs861539 KLC1, AG + AA
[10] = endpt1, hCV8901525 rs861539 KLC1, GG
[11] = endpt1, hCV8921288 rs1060621 GAPDH, AA
[12] = endpt1, hCV8921288 rs1060621 GAPDH, CA + CC
[13] = endpt1, hCV9055799 rs3734311 IMPG1, CC
[14] = endpt1, hCV9055799 rs3734311 IMPG1, CG + GG
[15] = endpt1, hCV9077561 rs1801274 FCGR2A, AA
[16] = endpt1, hCV9077561 rs1801274 FCGR2A, GA + GG
[17] = endpt1, hCV9506149 rs1250259 FN1, AA
[18] = endpt1, hCV9506149 rs1250259 FN1, TA + TT
[19] = endpt1, hCV9596963 rs6115 SERPINA5, GA + AA
[20] = endpt1, hCV9596963 rs6115 SERPINA5, GG
[21] = endpt1, hCV9604851 rs1805002 CCKBR, AG + AA
[22] = endpt1, hCV9604851 rs1805002 CCKBR, GG

CC[C@H](C)C(=O)O[C@H]1C[C@H](O)C=C2C=C[C@H](C)[C@H](CC[C@@H](O)C[C@@H](O)CC(=O)O)[C@H]21 [pravastatin]
NONEVENT (Pravastatin arm) (endpt1, hCV8851047 rs45614833 HLA-DPA1, CT + TT): 1229
EVENTS (Pravastatin arm) [1]: 120
NONEVENT (Pravastatin arm) [1]: 1198
EVENTS (Pravastatin arm) [2]: 13
NONEVENT (Pravastatin arm) [2]: 90
EVENTS (Pravastatin arm) [3]: 58
NONEVENT (Pravastatin arm) [3]: 491
EVENTS (Pravastatin arm) [4]: 74
NONEVENT (Pravastatin arm) [4]: 798
EVENTS (Pravastatin arm) [5]: 126
NONEVENT (Pravastatin arm) [5]: 1216
EVENTS (Pravastatin arm) [6]: 7
NONEVENT (Pravastatin arm) [6]: 40
EVENTS (Pravastatin arm) [7]: 53
NONEVENT (Pravastatin arm) [7]: 409
EVENTS (Pravastatin arm) [8]: 80
NONEVENT (Pravastatin arm) [8]: 882
EVENTS (Pravastatin arm) [9]: 88
NONEVENT (Pravastatin arm) [9]: 759
EVENTS (Pravastatin arm) [10]: 45
NONEVENT (Pravastatin arm) [10]: 504
EVENTS (Pravastatin arm) [11]: 97
NONEVENT (Pravastatin arm) [11]: 815
EVENTS (Pravastatin arm) [12]: 36
NONEVENT (Pravastatin arm) [12]: 440
EVENTS (Pravastatin arm) [13]: 15
NONEVENT (Pravastatin arm) [13]: 247
EVENTS (Pravastatin arm) [14]: 117
NONEVENT (Pravastatin arm) [14]: 1040
EVENTS (Pravastatin arm) [15]: 36
NONEVENT (Pravastatin arm) [15]: 300
EVENTS (Pravastatin arm) [16]: 96
NONEVENT (Pravastatin arm) [16]: 985
EVENTS (Pravastatin arm) (endpt1, hCV9494470, GG): 100
NONEVENT (Pravastatin arm) (endpt1, hCV9494470, GG): 884
EVENTS (Pravastatin arm) (endpt1, hCV9494470, TG + TT): 33
NONEVENT (Pravastatin arm) (endpt1, hCV9494470, TG + TT): 407
EVENTS (Pravastatin arm) [17]: 64
NONEVENT (Pravastatin arm) [17]: 678
EVENTS (Pravastatin arm) [18]: 69
NONEVENT (Pravastatin arm) [18]: 611
EVENTS (Pravastatin arm) [19]: 106
NONEVENT (Pravastatin arm) [19]: 1147
EVENTS (Pravastatin arm) [20]: 26
NONEVENT (Pravastatin arm) [20]: 136
EVENTS (Pravastatin arm) [21]: 19
NONEVENT (Pravastatin arm) [21]: 113
EVENTS (Pravastatin arm) [22]: 114
NONEVENT (Pravastatin arm) [22]: 1178
EVENTS (Pravastatin arm) (endpt1, hCV25630686 PSMB9, CC): 128
NONEVENT (Pravastatin arm) (endpt1, hCV25630686 PSMB9, CC): 1206
EVENTS (Pravastatin arm) (endpt1, hCV25630686 PSMB9, TC + TT): 5

From patent US8216786B2, “Genetic polymorphisms associated with cardiovascular diseases, methods of detection and uses thereof” (Celera Corporation, priority 2008, dated 2012)
